Molecules are shown by their SMILES. Like-named read-outs stand apart in the source and are kept apart here.

Experimental findings from US6313171A, “Method for preventing or treating elevated blood lipid level-related diseases by administering cinnamic acid derivatives” (Korea Research Institute of Bioscience & Biotechnology, priority 1998, dated 2001) are described below.

Test [1] is classed as in vivo, rabbit (New Zealand White). The note with it: rabbits, 1% cholesterol diet plus 0.1% derivative or 1 mg/kg Lovastatin, 8 weeks; for HDL/TC: Control 2.5 ± 0.4; for HDL-C (High density lipoprotein-cholesterol): Control 50 ± 11; for TG (Triglyceride): Control 170 ± 30; for TC (Total cholesterol): Control 1995 ± 472. On the procedure: 30 three-month-old male New Zealand White rabbits (Yeonam Horticulture and Animal Husbandry College, Korea), each weighing about 2.5 to 2.6 kg, were raised under condition of temperature 20±2° C., relative humidity 55±5%, and photoperiod 12L/12D. The rabbits were divided into 5 groups and 5 groups of rabbits were fed with 5 different diets, i.e., RC4 diet (Oriental Yeast Co., Japan) containing 1% cholesterol (Control group); 1% cholesterol plus 1 mg/kg Lovastatin® (Merck, U.S.A.) (Lovastatin group); 1% cholesterol plus 0.1% 4-hydroxycinnamic acid (4-hydroxycinnamic acid group); 1% cholesterol plus 0.1% 3,4-dihydroxycinnamic acid (3,4-dihydroxycinnamic acid group); and 1% cholesterol plus 0.1% 3,4-dihydroxyhydrocinnamic acid (3,4-dihydroxyhydrocinnamic acid group), respectively. RC4 diet comprises 7.6% moisture, 22.8% crude protein, 2.8% crude fat, 8.8% crude ash, 14.4% crude cellulose and 43.6% soluble nitrogen-free substances. Cinnamic acid derivatives were purchased from Sigma Chemical Co. (St. Louis, Mo.).
The rabbits were fed for 8 weeks while being allowed free access to the diets and water.
After eight weeks, the rabbits were anesthetized with an intramuscular injection of ketamine (50 mg/kg) in the femoral region and sacrificed. A blood sample was taken from the heart of each rabbit, allowed to stand for 2 hours and centrifuged at 3,000 rpm for 15 minutes and the supernatant serum was separated and stored in a freezer before use.
The chemical analysis of blood was carried out by employing a blood chemical analyzer (CIBA Corning 550 Express, USA) to determine the changes in GOT, GPT, total cholesterol, HDL-cholesterol and triglyceride levels.

Another test concerns main artery. As to the kind of experiment: Analysis for fatty streak in the main artery of rabbits. In kind it is in vivo, rabbit (New Zealand White). The note with it: for macrophage-lipid complex on the arterial endothelium: FIGS. 1A-1E, control: a thick layer; for Fatty streak: proportion of total arterial area, Oil Red O, rabbits, 8 weeks, Control 80 ± 8. The protocol: Cinnamic acid derivatives were purchased from Sigma Chemical Co. (St. Louis, Mo.). The rabbits were fed for 8 weeks while being allowed free access to the diets and water. The chest of each of the rabbits sacrificed in Step 2 was incised. […] The main artery was incised in the middle along the longitudinal axis and pinned to a dish. The moist artery was photographed and, then, the staining of fatty streaks was carried out in accordance with the method of […]., et al. (J. Lab. Clin. Med., 121, 103-110(1993)) as follows. A part of the incised main artery was washed three times with anhydrous propylene glycol for 2 min. and stained for 30 min. with a saturated solution of Oil Red O (ORO, Sigma Co.) dissolved in propylene glycol. Thereafter, the artery was washed twice with 85% propylene glycol for 3 min. to remove remaining staining solution and, then washed with physiological saline. The artery was photographed and the photograph was traced. The area of stained region (fatty streak region) was determined with an image analyzer (LEICA, Q-600, Germany) and its proportion (%) to the total arterial area was calculated.

A further test has as its system ACAT. As to the kind of experiment: ACAT assay, liver microsomes of the fed rabbits. In kind it is biochemical, rabbit. The note with it: rabbits fed 0.1% in 1% cholesterol diet; Control 0. (Liver microsomes are vesicles of endoplasmic reticulum, rich in cytochrome P450 enzymes.)
Test [2] can be described thus: Plasma total cholesterol and HDL-cholesterol of rats fed a high-cholesterol diet. In kind it is in vivo, rat (Sprague-Dawley). To be noted: for HDL-C/TC ratio / HDL-C (HDL-cholesterol) / TC (Total cholesterol): 0.1% in 1% cholesterol diet, six weeks; for HDL-C/TC ratio: Control 28, listed as head is [formula]; for HDL-C (HDL-cholesterol): Control 38 ± 2; for TC (Total cholesterol): Control 135 ± 6; for increase of HDL-C/TC ratio / reduction of total plasma cholesterol level: as compared with control group. An excerpt: 40 three-week-old white Sprague-Dawley rats (Taihan laboratory animal center, Korea), each weighing about 90 to 110 g, were evenly divided into four dietary groups by a randomized block design. The rats of the four groups were fed with four different high-cholesterol diets, i.e., AIN-76 laboratory animal diet (ICN Biochemicals, Cleveland, Ohio, U.S.A.) containing 1% cholesterol (Control group); 1% cholesterol plus 0.1% 4-hydroxycinnamic acid (4-hydroxycinnamic acid group); 1% cholesterol plus 0.1% 3,4-dihydroxycinnamic acid (3,4-dihydroxycinnamic acid group); and 1% cholesterol plus 0.1% 3,4-dihydroxyhydrocinnamic acid (3,4-dihydroxyhydrocinnamic acid group), respectively.
The rats were allowed to feed freely on the specified diet together with water for six weeks, the ingestion amount was recorded daily and the rats were weighed every 7 days, and then the record was analyzed.
The effects of administering cinnamic acid derivatives to rats on the plasma cholesterol and neutral lipid contents were determined as follows.
The rats of the four dietary groups obtained in Step 1 were sacrificed and blood samples were taken therefrom. The blood was allowed to stand for 2 hours and centrifuged at 3,000 rpm for 15 minutes and the supernatant was separated and stored in a deep freezer before use. The chemical analysis of blood was carried out by employing a blood chemical analyzer (CIBA Corning 550 Express, USA) to determine the changes in total cholesterol and HDL-cholesterol levels.

As to `O=C(O)CCc1ccc(O)c(O)c1` [3,4-dihydroxyhydrocinnamic acid], in test [1], the HDL/TC is listed as 6.3 ± 1.6%, the “HDL-C (High density lipoprotein-cholesterol)” value is 80 ± 23 mg/dL, the “TG (Triglyceride)” value was found to be 108 ± 22 mg/dL and the “TC (Total cholesterol)” value is 1256 ± 150 mg/dL. In addition, in the test on main artery, the “macrophage-lipid complex on the arterial endothelium” value (shortened to “macrophage-lipid complex”) is reported as “no or very thin layers of macrophage-lipid complex” and the Fatty streak is reported as 16 ± 1%. Besides, the “Inhibition on ACAT activity” value in the test on ACAT was determined as 37%. Further, in test [2], the HDL-C/TC ratio is 35, the “HDL-C (HDL-cholesterol)” value is 45 ± 4 mg/dL, the “TC (Total cholesterol)” value was determined as 127 ± 4 mg/dL and the “increase of HDL-C/TC ratio” value is on record as 25%. Also, the “reduction of total plasma cholesterol level” value (from here on “reduction”) in test [2] came out at 6%.
In the case of `O=C(O)/C=C/c1ccc(O)cc1` [4-Hydroxycinnamic acid, 4-hydroxycinnamic acid], in test [1], the HDL/TC turned out to be 3.7 ± 1.3%, the “HDL-C (High density lipoprotein-cholesterol)” value was 57 ± 28 mg/dL, the “TG (Triglyceride)” value stood at 167 ± 43 mg/dL and the “TC (Total cholesterol)” value was determined as 1517 ± 417 mg/dL. For the same compound, in the test on main artery, the “macrophage-lipid complex” value is listed as “no or very thin layers of macrophage-lipid complex” and the Fatty streak was 24 ± 11%. In addition, the “Inhibition on ACAT activity” value in the test on ACAT was 9%. Besides, in test [2], the HDL-C/TC ratio worked out at 56, the “HDL-C (HDL-cholesterol)” value was found to be 57 ± 3 mg/dL, the “TC (Total cholesterol)” value is 102 ± 6 mg/dL and the “increase of HDL-C/TC ratio” value is 100%. Further, the “reduction” value in test [2] is given as 24%.
On to `O=C(O)/C=C/c1ccc(O)c(O)c1` [3,4-dihydroxycinnamic acid], for which, in test [1], the HDL/TC is 3.4 ± 0.4%, the “HDL-C (High density lipoprotein-cholesterol)” value is 53 ± 13 mg/dL, the “TG (Triglyceride)” value was 139 ± 46 mg/dL and the “TC (Total cholesterol)” value came out at 1559 ± 347 mg/dL. For the same compound, in the test with main artery, the “macrophage-lipid complex” value is recorded as “no or very thin layers of macrophage-lipid complex” and the Fatty streak is reported as 13 ± 5%. Moreover, the “Inhibition on ACAT activity” value in the test with ACAT was 33%. For the same compound, in test [2], the HDL-C/TC ratio stood at 33, the “HDL-C (HDL-cholesterol)” value came out at 39 ± 3 mg/dL, the “TC (Total cholesterol)” value came to 118 ± 6 mg/dL and the “increase of HDL-C/TC ratio” value is 18%. The “reduction” value in test [2] turned out to be 13%.
